Experiments:
southern crabgrass [1] = test: Test Example 5: herbicidal effect by foliage application, plastic box (Table 20, symbol F); assay type: in vivo, southern crabgrass (Digitaria ciliaris); details: amount of applied herbicide 320 g/ha; foliage application after 14-day growth; evaluated three weeks after application
Outline: (§1)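 Plants sown in sterilized diluvial soil and grown 14 days in a greenhouse at 25° C to 30° C, then sprayed on the foliage with the compound's emulsion diluted in water to a predetermined herbicide amount. Injury to weeds and crops scored three weeks after application on a visual rating scale.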

Chinese sprangletop = test: Test Example 3: herbicidal effect by foliage application, Wagner pot (Table 18, symbol D); assay type: in vivo, chinese sprangletop (Leptochloa chinensis); details: 320 g/ha
Outline: (§2)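 Plants were sown in alluvial soil held under 0.1–0.5 cm standing water and grown 14 days in a greenhouse at 25–30 °C. An emulsifiable formulation, water-diluted to the set dose, was then sprayed onto the foliage, and effects were scored three weeks later using previously defined criteria.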

oval-leafed pondweed = test: Test Example 1: herbicidal activity, application before weed generation under submerged conditions (Table 16, symbol C); assay type: in vivo, oval-leafed pondweed (Monochoria vaginalis); details: amount of applied herbicide 320 g/ha
Outline: (§3)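 Emulsion formulation, water-diluted to set dose, was put onto the flooded surface (4 cm depth, alluvial soil) the same day weeds were sown and 2.5-leaf rice transplanted. After 3 weeks at 25-30 °C under glass, each species was rated 0 (≤5% kill) to 5 (≥90% kill).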

green foxtail [2] = test: Test Example 4: herbicidal effect by soil treatment (Table 19, symbol G); assay type: in vivo, green foxtail (Setaria viridis); details: amount of applied herbicide 320 g/ha
Outline: (§4)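 Three weeks of greenhouse growth at 25° C. to 30° C. followed a uniform surface spray of water-diluted emulsion at a predetermined herbicide amount. Seeds had been sown beforehand under about 1.5 cm of sterilized diluvial soil. Grading followed criteria set out in an earlier test.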

Japanese bulrush = test: Test Example 1: herbicidal activity, application before weed generation under submerged conditions (Table 16, symbol B); assay type: in vivo, Japanese bulrush (Schoenoplectus juncoides); details: amount of applied herbicide 320 g/ha
Outline: as §3

barnyard grass [3] = test: Test Example 4: herbicidal effect by soil treatment (Table 19, symbol H); assay type: in vivo, barnyard grass (Echinochloa crus-galli); details: amount of applied herbicide 320 g/ha
Outline: as §4

persian speedwell [4] = test: Test Example 4: herbicidal effect by soil treatment (Table 19, symbol R); assay type: in vivo, Persian speedwell (Veronica persica); details: amount of applied herbicide 320 g/ha
Outline: as §4

late watergrass = test: Test Example 1: herbicidal activity, application before weed generation under submerged conditions (Table 16, symbol A); assay type: in vivo, late watergrass (Echinochloa oryzicola); details: amount of applied herbicide 320 g/ha
Outline: as §3

Italian ryegrass [5] = test: Test Example 5: herbicidal effect by foliage application, plastic box (Table 20, symbol K); assay type: in vivo, Italian ryegrass (Lolium multiflorum); details: amount of applied herbicide 320 g/ha; foliage application after 14-day growth; evaluated three weeks after application
Outline: as §1

blackgrass [6] = test: Test Example 5: herbicidal effect by foliage application, plastic box (Table 20, symbol J); assay type: in vivo, blackgrass (Alopecurus myosuroides); details: amount of applied herbicide 320 g/ha; foliage application after 14-day growth; evaluated three weeks after application
Outline: as §1

chickweed [7] = test: Test Example 5: herbicidal effect by foliage application, plastic box (Table 20, symbol P); assay type: in vivo, common chickweed (Stellaria media); details: amount of applied herbicide 320 g/ha; foliage application after 14-day growth; evaluated three weeks after application
Outline: as §1

redroot pigweed [8] = test: Test Example 5: herbicidal effect by foliage application, plastic box (Table 20, symbol N); assay type: in vivo, redroot pigweed (Amaranthus retroflexus); details: amount of applied herbicide 320 g/ha; foliage application after 14-day growth; evaluated three weeks after application
Outline: as §1

windgrass [9] = test: Test Example 5: herbicidal effect by foliage application, plastic box (Table 20, symbol L); assay type: in vivo, windgrass (Apera spica-venti); details: amount of applied herbicide 320 g/ha; foliage application after 14-day growth; evaluated three weeks after application
Outline: as §1

barnyard grass [10] = test: Test Example 3: herbicidal effect by foliage application, Wagner pot (Table 18, symbol H); assay type: in vivo, barnyard grass (Echinochloa crus-galli); details: 320 g/ha
Outline: as §2

rice flat sedge = test: Test Example 3: herbicidal effect by foliage application, Wagner pot (Table 18, symbol E); assay type: in vivo, rice flat sedge (Cyperus iria); details: 320 g/ha
Outline: as §2

redroot pigweed [11] = test: Test Example 4: herbicidal effect by soil treatment (Table 19, symbol N); assay type: in vivo, redroot pigweed (Amaranthus retroflexus); details: amount of applied herbicide 320 g/ha
Outline: as §4

barnyard grass [12] = test: Test Example 5: herbicidal effect by foliage application, plastic box (Table 20, symbol H); assay type: in vivo, barnyard grass (Echinochloa crus-galli); details: amount of applied herbicide 320 g/ha; foliage application after 14-day growth; evaluated three weeks after application
Outline: as §1

lambsquarters [13] = test: Test Example 5: herbicidal effect by foliage application, plastic box (Table 20, symbol O); assay type: in vivo, lambsquarters (Chenopodium album); details: amount of applied herbicide 320 g/ha; foliage application after 14-day growth; evaluated three weeks after application
Outline: as §1

wild oat [14] = test: Test Example 5: herbicidal effect by foliage application, plastic box (Table 20, symbol I); assay type: in vivo, wild oat (Avena fatua); details: amount of applied herbicide 320 g/ha; foliage application after 14-day growth; evaluated three weeks after application
Outline: as §1

Italian ryegrass [15] = test: Test Example 4: herbicidal effect by soil treatment (Table 19, symbol K); assay type: in vivo, Italian ryegrass (Lolium multiflorum); details: amount of applied herbicide 320 g/ha
Outline: as §4

velvetleaf [16] = test: Test Example 5: herbicidal effect by foliage application, plastic box (Table 20, symbol M); assay type: in vivo, velvetleaf (Abutilon theophrasti); details: amount of applied herbicide 320 g/ha; foliage application after 14-day growth; evaluated three weeks after application
Outline: as §1

blackgrass [17] = test: Test Example 4: herbicidal effect by soil treatment (Table 19, symbol J); assay type: in vivo, blackgrass (Alopecurus myosuroides); details: amount of applied herbicide 320 g/ha
Outline: as §4

wild oat [18] = test: Test Example 4: herbicidal effect by soil treatment (Table 19, symbol I); assay type: in vivo, wild oat (Avena fatua); details: amount of applied herbicide 320 g/ha
Outline: as §4

green foxtail [19] = test: Test Example 5: herbicidal effect by foliage application, plastic box (Table 20, symbol G); assay type: in vivo, green foxtail (Setaria viridis); details: amount of applied herbicide 320 g/ha; foliage application after 14-day growth; evaluated three weeks after application
Outline: as §1

velvetleaf [20] = test: Test Example 4: herbicidal effect by soil treatment (Table 19, symbol M); assay type: in vivo, velvetleaf (Abutilon theophrasti); details: amount of applied herbicide 320 g/ha
Outline: as §4

windgrass [21] = test: Test Example 4: herbicidal effect by soil treatment (Table 19, symbol L); assay type: in vivo, windgrass (Apera spica-venti); details: amount of applied herbicide 320 g/ha
Outline: as §4

chickweed [22] = test: Test Example 4: herbicidal effect by soil treatment (Table 19, symbol P); assay type: in vivo, common chickweed (Stellaria media); details: amount of applied herbicide 320 g/ha
Outline: as §4

persian speedwell [23] = test: Test Example 5: herbicidal effect by foliage application, plastic box (Table 20, symbol R); assay type: in vivo, Persian speedwell (Veronica persica); details: amount of applied herbicide 320 g/ha; foliage application after 14-day growth; evaluated three weeks after application
Outline: as §1

lambsquarters [24] = test: Test Example 4: herbicidal effect by soil treatment (Table 19, symbol O); assay type: in vivo, lambsquarters (Chenopodium album); details: amount of applied herbicide 320 g/ha
Outline: as §4

southern crabgrass [25] = test: Test Example 4: herbicidal effect by soil treatment (Table 19, symbol F); assay type: in vivo, southern crabgrass (Digitaria ciliaris); details: amount of applied herbicide 320 g/ha
Outline: as §4

## CCCC(=O)Oc1c(C)nn(C)c(=O)c1-c1c(-c2ccccc2OCC)sc2cc(Cl)c(Cl)cc12 [5-046]
Southern crabgrass [1]
  Herbicidal effect by foliage application, F: southern crabgrass: 3 (Herbicidal rate of 40% or more and less than 70%)
Chinese sprangletop
  herbicidal effect on Chinese sprangletop (D): 3 (Herbicidal rate of 40% or more and less than 70%)
oval-leafed pondweed
  Herbicidal effect, C: oval-leafed pondweed: 0 (Herbicidal rate of 5% or less (almost no effect))
Green foxtail [2]
  G: green foxtail, herbicidal effect grade: 0 (Herbicidal rate of 5% or less (almost no effect))
Japanese bulrush
  Herbicidal effect, B: Japanese bulrush: 3 (Herbicidal rate of 40% or more and less than 70%)
Barnyard grass [3]
  H: barnyard grass, herbicidal effect grade: 0 (Herbicidal rate of 5% or less (almost no effect))
Persian speedwell [4]
  R: persian speedwell, herbicidal effect grade: 0 (Herbicidal rate of 5% or less (almost no effect))
Late watergrass
  Herbicidal effect, A: late watergrass: 0 (Herbicidal rate of 5% or less (almost no effect))
Italian ryegrass [5]
  Herbicidal effect by foliage application, K: Italian ryegrass: 0 (Herbicidal rate of 5% or less (almost no effect))
Blackgrass [6]
  Herbicidal effect by foliage application, J: blackgrass: 0 (Herbicidal rate of 5% or less (almost no effect))
Chickweed [7]
  Herbicidal effect by foliage application, P: chickweed: 5 (Herbicidal rate of 90% or more (almost completely withered))
Redroot pigweed [8]
  Herbicidal effect by foliage application, N: redroot pigweed: 5 (Herbicidal rate of 90% or more (almost completely withered))
Windgrass [9]
  Herbicidal effect by foliage application, L: windgrass: 0 (Herbicidal rate of 5% or less (almost no effect))
Barnyard grass [10]
  herbicidal effect on barnyard grass (H): 5 (Herbicidal rate of 90% or more (almost completely withered))
Rice flat sedge
  herbicidal effect on rice flat sedge (E): 5 (Herbicidal rate of 90% or more (almost completely withered))
Redroot pigweed [11]
  N: redroot pigweed, herbicidal effect grade: 0 (Herbicidal rate of 5% or less (almost no effect))
Barnyard grass [12]
  Herbicidal effect by foliage application, H: barnyard grass: 4 (Herbicidal rate of 70% or more and less than 90%)
Lambsquarters [13]
  Herbicidal effect by foliage application, O: lambsquarters: 3 (Herbicidal rate of 40% or more and less than 70%)
Wild oat [14]
  Herbicidal effect by foliage application, I: wild oat: 0 (Herbicidal rate of 5% or less (almost no effect))
Italian ryegrass [15]
  K: Italian ryegrass, herbicidal effect grade: 0 (Herbicidal rate of 5% or less (almost no effect))
Velvetleaf [16]
  Herbicidal effect by foliage application, M: velvetleaf: 5 (Herbicidal rate of 90% or more (almost completely withered))
Blackgrass [17]
  J: blackgrass, herbicidal effect grade: 0 (Herbicidal rate of 5% or less (almost no effect))
Wild oat [18]
  I: wild oat, herbicidal effect grade: 0 (Herbicidal rate of 5% or less (almost no effect))
Green foxtail [19]
  Herbicidal effect by foliage application, G: green foxtail: 3 (Herbicidal rate of 40% or more and less than 70%)
Velvetleaf [20]
  M: velvetleaf, herbicidal effect grade: 0 (Herbicidal rate of 5% or less (almost no effect))
Windgrass [21]
  L: windgrass, herbicidal effect grade: 0 (Herbicidal rate of 5% or less (almost no effect))
Chickweed [22]
  P: chickweed, herbicidal effect grade: 3 (Herbicidal rate of 40% or more and less than 70%)
Persian speedwell [23]
  Herbicidal effect by foliage application, R: persian speedwell: 4 (Herbicidal rate of 70% or more and less than 90%)
Lambsquarters [24]
  O: lambsquarters, herbicidal effect grade: 0 (Herbicidal rate of 5% or less (almost no effect))
Southern crabgrass [25]
  F: southern crabgrass, herbicidal effect grade: 0 (Herbicidal rate of 5% or less (almost no effect))
